From ChEMBL document CHEMBL3217463, “Design, synthesis and biological evaluation of -lactam hydroxamate based TACE inhibitors” (Medchemcomm, 2011) come the findings set out here.

Molecules are shown by their SMILES. pIC50: −log10 of the molar value.

One test deals with Blood. Nature of the test: Antiinflammatory activity in human whole blood assessed as inhibition of LPS-induced TNFalpha secretion by ELISA. In kind it is functional, tissue-based.
Test [1] addresses T1, Disintegrin and metalloproteinase domain-containing protein 17 (Homo sapiens, UniProt P78536). In words: Inhibition of human catalytic domain of TACE assessed as inhibit the cleavage of the substrate by fluorescence-based FRET assay.
Test [2] concerns the target T2, Disintegrin and metalloproteinase domain-containing protein 10 (Homo sapiens, UniProt O14672).
T2 sequence (O14672 whole entry): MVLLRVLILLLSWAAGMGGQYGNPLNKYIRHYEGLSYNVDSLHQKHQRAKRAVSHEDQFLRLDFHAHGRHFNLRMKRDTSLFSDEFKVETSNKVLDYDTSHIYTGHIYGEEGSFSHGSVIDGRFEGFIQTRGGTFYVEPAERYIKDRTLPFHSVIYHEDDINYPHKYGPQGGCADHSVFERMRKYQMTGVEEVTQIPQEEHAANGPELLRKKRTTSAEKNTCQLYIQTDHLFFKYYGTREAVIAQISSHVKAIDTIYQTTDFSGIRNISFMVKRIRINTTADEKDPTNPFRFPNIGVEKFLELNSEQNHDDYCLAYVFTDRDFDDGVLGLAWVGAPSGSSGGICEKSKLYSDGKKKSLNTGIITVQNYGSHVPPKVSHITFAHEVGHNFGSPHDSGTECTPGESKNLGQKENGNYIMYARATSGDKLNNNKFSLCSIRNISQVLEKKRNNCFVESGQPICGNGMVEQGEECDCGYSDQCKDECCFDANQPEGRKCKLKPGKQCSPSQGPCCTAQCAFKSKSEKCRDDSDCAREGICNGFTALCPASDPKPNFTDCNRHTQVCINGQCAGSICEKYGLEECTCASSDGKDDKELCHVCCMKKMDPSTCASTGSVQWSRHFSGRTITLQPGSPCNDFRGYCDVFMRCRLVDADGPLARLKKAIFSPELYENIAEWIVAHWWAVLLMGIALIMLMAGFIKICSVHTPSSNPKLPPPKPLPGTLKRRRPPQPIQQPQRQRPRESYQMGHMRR
In words: Inhibition of ADAM10 (unknown origin) using fluorescent substrate by fluorescence-based FRET assay.

In another test the target is T3, Interstitial collagenase (Homo sapiens, UniProt P03956).
T3 sequence (P03956 whole entry): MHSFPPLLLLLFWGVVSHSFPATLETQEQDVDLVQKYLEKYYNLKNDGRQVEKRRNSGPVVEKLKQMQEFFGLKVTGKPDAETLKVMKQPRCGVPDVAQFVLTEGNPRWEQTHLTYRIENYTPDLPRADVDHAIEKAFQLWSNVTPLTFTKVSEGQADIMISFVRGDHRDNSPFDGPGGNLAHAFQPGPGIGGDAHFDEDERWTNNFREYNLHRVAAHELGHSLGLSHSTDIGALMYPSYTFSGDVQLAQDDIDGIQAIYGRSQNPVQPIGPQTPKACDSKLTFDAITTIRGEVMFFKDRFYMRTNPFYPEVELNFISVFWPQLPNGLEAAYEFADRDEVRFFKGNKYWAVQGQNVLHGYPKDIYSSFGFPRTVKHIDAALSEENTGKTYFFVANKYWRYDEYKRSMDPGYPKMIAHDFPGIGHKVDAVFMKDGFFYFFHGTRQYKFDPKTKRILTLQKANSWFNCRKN
In words: Inhibition of MMP1 (unknown origin) by fluorescence-based FRET assay.

Test [3] deals with 72 kDa type IV collagenase (Homo sapiens, UniProt P08253). In words: Inhibition of MMP2 (unknown origin) by fluorescence-based FRET assay.
A further test has as its target Stromelysin-1 (Homo sapiens, UniProt P08254). Nature of the test: Inhibition of MMP3 (unknown origin) by fluorescence-based FRET assay.
Another test deals with T4, Matrilysin (Homo sapiens, UniProt P09237).
T4 sequence (P09237 whole entry): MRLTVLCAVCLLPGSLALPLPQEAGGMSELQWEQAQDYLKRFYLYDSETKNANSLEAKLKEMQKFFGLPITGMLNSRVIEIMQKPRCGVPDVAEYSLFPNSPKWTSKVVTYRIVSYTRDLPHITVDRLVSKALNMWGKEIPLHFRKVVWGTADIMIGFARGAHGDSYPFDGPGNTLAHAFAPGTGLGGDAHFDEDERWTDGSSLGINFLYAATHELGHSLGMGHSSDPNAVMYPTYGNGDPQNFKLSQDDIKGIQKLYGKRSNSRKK
Nature of the test: Inhibition of MMP7 (unknown origin) by fluorescence-based FRET assay.

A further test addresses Neutrophil collagenase (Homo sapiens, UniProt P22894). In words: Inhibition of MMP8 (unknown origin) by fluorescence-based FRET assay.
The target in test [4] is Matrix metalloproteinase-9 (Homo sapiens, UniProt P14780). In words: Inhibition of MMP9 (unknown origin) by fluorescence-based FRET assay.
The target in another test is Collagenase 3 (Homo sapiens, UniProt P45452). In words: Inhibition of MMP13 (unknown origin) by fluorescence-based FRET assay.
The target of test [5] is Matrix metalloproteinase-14 (Homo sapiens, UniProt P50281). Nature of the test: Inhibition of MMP14 (unknown origin) by fluorescence-based FRET assay.
For test [6], the target named is T1, Disintegrin and metalloproteinase domain-containing protein 17. Nature of the test: Ratio of IC50 for human catalytic domain of TACE to IC50 for ADAM10 (unknown origin).
For test [7] the target is unchanged. In words: Ratio of IC50 for human catalytic domain of TACE to IC50 for MMP1 (unknown origin).
The target is the same in test [8]. In words: Ratio of IC50 for human catalytic domain of TACE to IC50 for MMP2 (unknown origin).
The target is the same in test [9]. Nature of the test: Ratio of IC50 for human catalytic domain of TACE to IC50 for MMP3 (unknown origin).
For test [10] the target is unchanged. In words: Ratio of IC50 for human catalytic domain of TACE to IC50 for MMP7 (unknown origin).
Test [11] shares this target. Nature of the test: Ratio of IC50 for human catalytic domain of TACE to IC50 for MMP8 (unknown origin).
The target is the same in test [12]. In words: Ratio of IC50 for human catalytic domain of TACE to IC50 for MMP9 (unknown origin).
For test [13] the target is unchanged. Nature of the test: Ratio of IC50 for human catalytic domain of TACE to IC50 for MMP13 (unknown origin).
The target is the same in test [14]. Nature of the test: Ratio of IC50 for human catalytic domain of TACE to IC50 for MMP14 (unknown origin).
The test system of another test is Mus musculus. Nature of the test: Antiinflammatory activity in po dosed Swiss Albino mouse assessed as inhibition of LPS-induced TNFalpha secretion in blood treated 0.5 hrs before LPS and measured after 1 hr of LPS stimulus by ELISA. In kind it is functional. A general note: An ELISA detects its analyte on a solid surface through an enzyme-linked reagent.

T1 sequence (P78536 whole entry, the tested form may be a part): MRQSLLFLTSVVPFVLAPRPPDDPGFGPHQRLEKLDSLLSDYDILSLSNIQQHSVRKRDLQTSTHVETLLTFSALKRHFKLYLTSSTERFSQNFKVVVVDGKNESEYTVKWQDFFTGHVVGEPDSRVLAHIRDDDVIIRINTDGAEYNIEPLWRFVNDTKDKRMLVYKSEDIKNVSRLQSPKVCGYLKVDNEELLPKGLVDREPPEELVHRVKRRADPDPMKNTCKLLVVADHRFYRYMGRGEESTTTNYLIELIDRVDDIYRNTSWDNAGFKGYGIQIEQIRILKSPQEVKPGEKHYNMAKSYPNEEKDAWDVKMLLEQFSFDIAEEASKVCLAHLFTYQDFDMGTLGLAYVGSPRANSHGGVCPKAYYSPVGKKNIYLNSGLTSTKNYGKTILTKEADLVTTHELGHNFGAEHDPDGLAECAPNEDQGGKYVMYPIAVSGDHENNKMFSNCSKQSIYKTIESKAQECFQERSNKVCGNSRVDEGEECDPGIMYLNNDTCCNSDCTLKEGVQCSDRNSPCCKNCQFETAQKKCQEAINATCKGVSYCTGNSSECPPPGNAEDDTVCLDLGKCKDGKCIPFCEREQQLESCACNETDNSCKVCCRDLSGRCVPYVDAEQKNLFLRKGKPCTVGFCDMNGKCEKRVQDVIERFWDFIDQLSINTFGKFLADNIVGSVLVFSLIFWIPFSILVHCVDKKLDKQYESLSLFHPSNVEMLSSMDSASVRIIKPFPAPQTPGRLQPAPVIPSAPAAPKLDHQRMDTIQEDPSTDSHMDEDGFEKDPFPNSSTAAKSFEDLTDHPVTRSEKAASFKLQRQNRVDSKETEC
Sequence of Neutrophil collagenase (P22894 whole entry): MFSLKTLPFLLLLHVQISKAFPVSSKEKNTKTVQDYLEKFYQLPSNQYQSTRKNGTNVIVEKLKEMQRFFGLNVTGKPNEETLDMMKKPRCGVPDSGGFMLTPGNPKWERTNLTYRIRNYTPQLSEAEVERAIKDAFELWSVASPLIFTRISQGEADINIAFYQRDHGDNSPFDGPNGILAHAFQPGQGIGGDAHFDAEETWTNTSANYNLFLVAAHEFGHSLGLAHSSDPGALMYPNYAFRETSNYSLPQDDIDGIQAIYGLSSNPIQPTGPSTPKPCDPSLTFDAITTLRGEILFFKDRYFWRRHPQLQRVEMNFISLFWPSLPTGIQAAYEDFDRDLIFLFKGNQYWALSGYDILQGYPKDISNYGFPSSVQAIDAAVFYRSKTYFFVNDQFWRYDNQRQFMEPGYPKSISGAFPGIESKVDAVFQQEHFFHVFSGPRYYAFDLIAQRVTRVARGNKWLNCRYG
Sequence of Stromelysin-1 (P08254 whole entry): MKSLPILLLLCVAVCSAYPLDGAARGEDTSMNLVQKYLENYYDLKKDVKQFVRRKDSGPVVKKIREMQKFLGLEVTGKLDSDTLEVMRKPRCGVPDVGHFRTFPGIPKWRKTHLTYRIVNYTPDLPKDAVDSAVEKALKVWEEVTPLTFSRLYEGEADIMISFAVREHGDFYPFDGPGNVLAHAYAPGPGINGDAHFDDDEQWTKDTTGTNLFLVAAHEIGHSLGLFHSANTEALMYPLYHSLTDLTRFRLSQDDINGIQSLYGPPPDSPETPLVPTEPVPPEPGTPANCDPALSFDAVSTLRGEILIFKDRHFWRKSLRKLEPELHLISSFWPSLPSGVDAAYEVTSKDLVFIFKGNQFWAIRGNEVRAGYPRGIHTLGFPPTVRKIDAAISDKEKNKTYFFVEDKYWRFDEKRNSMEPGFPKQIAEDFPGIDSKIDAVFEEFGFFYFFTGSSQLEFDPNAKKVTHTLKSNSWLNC
Sequence of 72 kDa type IV collagenase (P08253 whole entry): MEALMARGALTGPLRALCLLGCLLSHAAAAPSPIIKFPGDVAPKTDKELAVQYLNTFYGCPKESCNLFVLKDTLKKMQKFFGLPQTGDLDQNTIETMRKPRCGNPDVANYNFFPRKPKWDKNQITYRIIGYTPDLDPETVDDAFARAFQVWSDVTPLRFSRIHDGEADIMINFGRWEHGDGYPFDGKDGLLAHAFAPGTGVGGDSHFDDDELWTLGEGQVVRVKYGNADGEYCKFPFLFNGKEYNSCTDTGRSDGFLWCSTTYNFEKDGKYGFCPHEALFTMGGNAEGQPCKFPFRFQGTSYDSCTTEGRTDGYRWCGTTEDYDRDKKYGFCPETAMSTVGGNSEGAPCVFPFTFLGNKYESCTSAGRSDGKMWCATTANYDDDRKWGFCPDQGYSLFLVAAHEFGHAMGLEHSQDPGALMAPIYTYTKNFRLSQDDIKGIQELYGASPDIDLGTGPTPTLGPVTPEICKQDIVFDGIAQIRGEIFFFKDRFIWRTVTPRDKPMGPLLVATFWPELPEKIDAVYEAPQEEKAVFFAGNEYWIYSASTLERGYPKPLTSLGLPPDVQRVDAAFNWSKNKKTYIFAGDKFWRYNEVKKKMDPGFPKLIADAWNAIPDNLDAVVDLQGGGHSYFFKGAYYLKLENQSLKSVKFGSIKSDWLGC
Sequence of Matrix metalloproteinase-9 (P14780 whole entry): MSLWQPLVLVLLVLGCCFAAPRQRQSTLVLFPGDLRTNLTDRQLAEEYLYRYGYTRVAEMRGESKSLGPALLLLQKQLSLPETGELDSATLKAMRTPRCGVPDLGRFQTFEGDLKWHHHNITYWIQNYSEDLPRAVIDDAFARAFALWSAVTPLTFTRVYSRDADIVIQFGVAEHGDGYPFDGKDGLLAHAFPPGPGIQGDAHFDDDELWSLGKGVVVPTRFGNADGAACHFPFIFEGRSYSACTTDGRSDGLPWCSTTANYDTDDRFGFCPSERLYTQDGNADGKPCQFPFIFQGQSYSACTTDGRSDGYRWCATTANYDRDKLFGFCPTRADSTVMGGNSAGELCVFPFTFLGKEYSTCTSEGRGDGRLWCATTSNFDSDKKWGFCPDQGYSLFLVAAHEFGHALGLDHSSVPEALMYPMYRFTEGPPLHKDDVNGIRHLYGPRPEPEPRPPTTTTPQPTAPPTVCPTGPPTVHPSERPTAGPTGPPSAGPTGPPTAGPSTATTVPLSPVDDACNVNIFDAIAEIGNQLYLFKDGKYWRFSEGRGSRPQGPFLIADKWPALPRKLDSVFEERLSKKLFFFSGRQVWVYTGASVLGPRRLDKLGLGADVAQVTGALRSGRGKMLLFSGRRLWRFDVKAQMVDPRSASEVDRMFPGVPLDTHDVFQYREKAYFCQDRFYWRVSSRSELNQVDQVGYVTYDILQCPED

As for `COCc1cc(COc2ccc([C@]3(NC(=O)OC(C)(C)C)CCN([C@H](CC(C)C)C(=O)NO)C3=O)cc2)c2ccccc2n1`, the pIC50 (in general, the negative decadic logarithm of the IC50, by convention in mol/L) with Blood is 5.52.

Consider `COCc1cc(COc2ccc([C@]3(N)CCN([C@H](CC(C)C)C(=O)O)C3=O)cc2)c2ccccc2n1`, for which, in the test with Blood, the pIC50 is 5.49.

Take `CC(C)C[C@H](C(=O)NO)N1CC[C@@](N)(c2ccc(OCc3cc(C(C)C)nc4ccccc34)cc2)C1=O`: the pIC50 with Blood is 6.85.

As to `CC(C)C[C@H](C(=O)NO)N1CC[C@@](N)(c2ccc(OCc3cc(Cl)nc4ccccc34)cc2)C1=O`, the pIC50 with Blood was 6.35.

On to `CC(C)C[C@H](C(=O)NO)N1CC[C@@](N)(c2ccc(OCc3cc(-c4ccc(OCc5ccccc5)cc4)nc4ccccc34)cc2)C1=O`, for which the pIC50 with Blood was 5.40.

In the case of `COCc1cc(COc2ccc([C@]3(N)CCN([C@H](CC(C)C)C(=O)NO)C3=O)cc2)c2ccccc2n1`, the pIC50 is 7.96 in the test on Blood; 8.68 in test [1]; 5.92 in test [2]; 5.95 against Interstitial collagenase; 5.93 in test [3]; 5.97 against Stromelysin-1. In addition, the pIC50 against Matrilysin was 5.91; at Neutrophil collagenase it was 6.00; in [4], 5.94; against Collagenase 3, 5.91; in test [5], 5.97. Also, the Ratio IC50 in test [6], in test [7], in test [8], in [9], in test [10] and in test [11] was more than 500 in each case. Moreover, the Ratio IC50 in test [12], in test [13] and in [14] was more than 500 throughout. For the same compound, in the test on Mus musculus, the ED50 (usually the dose at which the effect has come halfway, by size or by number of responders) came out at 7.2 mg/kg.

For `CC(C)C[C@H](C(=O)NO)N1CC[C@@](N)(c2ccc(OCc3cc(-c4ccccc4)nc4ccccc34)cc2)C1=O`, the pIC50 in the test with Blood was 5.51.

With `CC(C)C[C@H](C(=O)NO)N1CC[C@@](N)(c2ccc(OCc3cc(C4CCCCC4)nc4ccccc34)cc2)C1=O`, the pIC50 in the test on Blood is 6.75.

On to `COc1ccc(-c2cc(COc3ccc([C@]4(N)CCN([C@H](CC(C)C)C(=O)NO)C4=O)cc3)c3ccccc3n2)cc1`, for which, in the test with Blood, the pIC50 is 6.60.

With `CC(C)C[C@H](C(=O)NO)N1CC[C@@](N)(c2ccc(OCc3cc(C(F)(F)F)nc4ccccc34)cc2)C1=O`, the pIC50 in the test on Blood is 6.33.

With `COCc1cc(COc2ccc([C@]3(N)CCN([C@H](C)C(=O)NO)C3=O)cc2)c2ccccc2n1`, in the test on Blood, the pIC50 is 7.01.

In the case of `CC(C)C[C@H](C(=O)NO)N1CC[C@@](N)(c2ccc(OCc3cc(C4CC4)nc4ccccc34)cc2)C1=O`, the pIC50 in the test on Blood is 6.77.

With `COCc1cc(COc2ccc([C@]3(N)CCN([C@H](CC(C)C)C(=O)OC)C3=O)cc2)c2ccccc2n1`, the pIC50 in the test on Blood is 5.52.

For the compound `CC(C)C[C@H](C(=O)NO)N1CC[C@@](N)(c2ccc(OCc3cc(CCOC(C)C)nc4ccccc34)cc2)C1=O`, the pIC50 in the test on Blood was 6.89.

For `CC(C)C[C@H](C(=O)NO)N1CC[C@@](N)(c2ccc(OCc3cc(-c4ccc(Cl)cc4)nc4ccccc34)cc2)C1=O`, the pIC50 in the test on Blood was 6.54.

As to `Cc1ccc(-c2cc(COc3ccc([C@]4(N)CCN([C@H](CC(C)C)C(=O)NO)C4=O)cc3)c3ccccc3n2)cc1`, the pIC50 with Blood was 5.54.

With `CC(C)C[C@H](C(=O)NO)N1CC[C@@](N)(c2ccc(OCc3cc(-c4ccc(F)cc4)nc4ccccc34)cc2)C1=O`, the pIC50 in the test with Blood is 6.54.

With `COc1cc(COc2ccc([C@]3(N)CCN([C@H](CC(C)C)C(=O)NO)C3=O)cc2)c2ccccc2n1`, the pIC50 in the test with Blood was 6.40.

In the case of `CC(C)C[C@H](C(=O)NO)N1CC[C@@](N)(c2ccc(OCc3cc(COC(C)C)nc4ccccc34)cc2)C1=O`, the negative logarithm of the IC50 (pIC50) in the test with Blood is 6.91.

As to `Cc1cccc(-c2cc(COc3ccc([C@]4(N)CCN([C@H](CC(C)C)C(=O)NO)C4=O)cc3)c3ccccc3n2)c1`, the pIC50 in the test with Blood was 5.41.

In the case of `CCc1cc(COc2ccc([C@]3(N)CCN([C@H](CC(C)C)C(=O)NO)C3=O)cc2)c2ccccc2n1`, the pIC50 with Blood was 6.95.
